Test results reported in patent publication US20170239307A1, “COMPOSITION OF DOXYCYCLINE IN LIPOSOMES FOR THE PREVENTION, IMPROVEMENT AND/OR TREATMENT OF OCULAR PATHOLOGIES” (AGENCIA PÚBLICA EMPRESARIAL SANITARIA HOSPITAL ALTO …, priority 2014, published 2017).

How the values were obtained:
[1] = test system: symptoms derived from blepharitis-dry eye like disease; assay: Symptom score according to the dry eye questionnaire; format: in vivo, patients
Description: FIG. 2. Individual analysis of each patient according to dry eye questionnaire score. All patients completed a questionnaire to evaluate the symptoms derived from blepharitis-dry eye like disease. […] FIG. 3. […] This figure complements FIG. 2. This test was designed (see test design literature) for assessing the symptoms the patient experiences and they can be expressed by means of a score based on questions about these symptoms.

[2] = test system: diabetic retinopathy; assay: Case report: supervision of the fundus of the eye in a diabetic patient; format: in vivo; details: diabetic patient with high blood glucose; treatment orally and as eye drops from 11 Feb. 2009
[3] = test system: aneurysmal dilatation; details: rats; cited from earlier work
[4] = test system: vascular intimal layer; details: patients taking doxycycline; cited from earlier work
[5] = test system: thrombosis; details: certain groups of hemodialysis patients; cited from earlier work
[6] = test system: chronic anterior and posterior blepharitis; assay: Case report: patient with blepharitis and glycemic decompensation, clinic examinations; details: same patient; high doses of oral doxycycline prescribed for 20 days, treatment abandoned
Description: Treatment with tobramycin and dexamethasone in the form of eye drops and artificial tears was established at that time.

With `C[C@H]1c2cccc(O)c2C(O)=C2C(=O)[C@]3(O)C(=O)/C(=C(/N)O)C(=O)[C@@H](N(C)C)[C@@H]3[C@@H](O)[C@@H]21` [doxycycline, (2Z,4S,4aR,5S,5aR,6R,12aS)-2-(amino-hydroxymethylidene)-4-dimethylamino-5,10,11,12a-tetrahydroxy-6-methyl-4a,5,5a,6-tetrahydro-4H-tetracene-1,3,12-trione] the “symptom score, dry eye questionnaire, each patient” value ([1]; 12 blepharitis patients, before treatment at least moderate, most severe, FIG. 2) was “symptoms improved”, the “sum of all the scores in all patients, dry eye questionnaire” value ([1]; before vs after treatment, FIG. 3) was “Symptoms decreased significantly” and the “signs of diabetic retinopathy” value [2] was “no signs of diabetic retinopathy”. For the same compound, the aneurysmal dilatation [3] was “capable of preventing aneurysmal dilatation without subsequent signs of inflammation”, the “vascular intimal layer proliferation and muscle cell migration” value [4] was “less vascular intimal layer proliferation as well as less muscle cell migration” and the prevention of thrombosis [5] was “effective in the prevention of thrombosis”. The “intolerance / side effect” value [6] was “an episode of gastritis”.
